Data taken from EP4702986A1, “POLYPEPTIDE AND USE THEREOF” (Biocells (Beijing) Biotech Co., Ltd., priority 2023, dated 2024).
pEC50: −log10 of the molar value. Read-outs that look alike come from different tables or passages of the source. Numbered stars: 1 amine (or outer) side, 2 acyl side, 3 side chain; on linkers, the order of the positions; unused ones are H or OH. Side chains are listed from the residue outwards. Ends that are not written are not given here. Peptide text beside a SMILES is read from it. * marks the point of attachment. X1 = C[C@H](NC(=O)[C@@H]1CCCN1C(=O)[C@@H](N)CSC1CC(=O)N(CCC(=O)*)C1=O)C(=O)N[C@@H](CCCCN)C(=O)O; C18 diacid = O=C(O)CCCCCCCCCCCCCCCCC(=O)*; γGlu = O=C(O)[C@H](CCC(=O)[*:2])N[*:1]; Fumaroyl = O=C(O)/C=C/C(=O)*; Suc = O=C(CCC(=O)[*:2])[*:1]; Lauroyl = CCCCCCCCCCCC(=O)*; AEEA = NCCOCCOCC(=O)O

How the values were obtained:
dog ETB receptor = target: T1, dog ETB receptor (Canis lupus familiaris, UniProt P56497); assay: Determination of EC50s of polypeptides against dog ETB receptor; format: cell-based; conditions: Table 7, dog ETB receptor; for pEC50: read-out: DETAR Agonist Activity EC50
T1 construct: expressed in transfected cells
T1 sequence (P56497 27-442): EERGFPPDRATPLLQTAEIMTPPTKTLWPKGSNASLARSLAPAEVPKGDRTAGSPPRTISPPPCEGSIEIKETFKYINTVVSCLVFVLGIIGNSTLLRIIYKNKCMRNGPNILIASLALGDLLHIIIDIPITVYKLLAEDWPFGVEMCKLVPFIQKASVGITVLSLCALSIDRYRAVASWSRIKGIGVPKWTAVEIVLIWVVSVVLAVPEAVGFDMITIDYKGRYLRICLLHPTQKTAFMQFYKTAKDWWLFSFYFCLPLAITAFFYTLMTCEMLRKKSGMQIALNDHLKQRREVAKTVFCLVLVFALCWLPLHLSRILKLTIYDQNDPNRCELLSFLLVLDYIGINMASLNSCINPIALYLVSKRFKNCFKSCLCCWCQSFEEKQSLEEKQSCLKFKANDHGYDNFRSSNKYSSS
Procedure: (§1) 293T-17 cells were seeded at a density of 650,000 cells per well in a 6-well plate and cultured overnight in an incubator at 37°C and 5% CO2. Afterward, the cells were transfected with an expression vector, PCDNA3.1-hETB which contained a human ETB receptor gene, at a plasmid concentration of 2.5 µg per well. The cells were further cultured for 48 hours, and green fluorescence expression was observed under a fluorescence microscope. The cells were then digested with trypsin and counted. The activity of compounds on the human ETB receptor was determined with the IP-One Gq kit from Cisbio Bioassays. The cells were suspended in Stim Buffer provided in the kit and the cell suspension was added to a 96-well detection plate at 7 µL cell suspension (containing 30,000 cells) per well. The polypeptides to be tested (prepared according to the Preparation Example of the invention) were diluted in Stim B to obtain a gradient of 11 concentration points. For each concentration point, the polypeptides to be tested were dissolved in Stim B to be at a concentration of 2×, and added at 7 µL to the test cells, while 7 µL of PBS solution was added to the cells in the negative control wells. The plate was sealed and incubated at 37°C for 1 hour in a cell culture incubator. Detection wells, positive control wells containing human endothelin ET1 (ET1: […] (C1-C15,C3-C11)), and PBS control wells were each added with 3 µL of IP1 d2 working solution and 3 µL of IP1 Tb cryptotate Antibody working solution. The plate was then sealed and incubated in the dark at room temperature (25°C±5°C) for 1 hour. The plate seal was removed, and the […] at 665 nm and 620 nm was measured with an ID5 microplate reader. The ratio of the acceptor emission signal to the donor emission signal, i.e., (signal at 665 nm/signal at 620 nm)×10^4, was calculated for each well. With F representing the average value of values of signal at 665 nm/signal at 620 nm for the test samples at various concentrations, a scatterplot was plotted, where the abscissa represented the F value, and the ordinate represented the logarithmic value of the peptide concentration. A curve was fitted with an appropriate method to calculate EC50 values of the polypeptides against the human ETB receptor. Another method was provided for fitting a curve where activation rate of the test polypeptides at each concentration relative to the positive control sample human endothelin ET1 was calculated first with the method in Example 1, and a scatterplot was plotted, where the abscissa represented the activation rate, and the ordinate represented the logarithmic value of the polypeptide concentration. A curve was fitted with an appropriate method to calculate the EC50 values of the polypeptides against the human ETB receptor.
The process is the same as that in Example 3, except that the transfected plasmid was expression vector PCDNA3.1-DETB which contained a dog ETB receptor gene. EC50 values of the polypeptide against the dog ETB receptor were calculated (see Figures 8-10). The sequence of the dog endothelin receptor B (NCBI accession number: NM_001010943.2).

rat ETB receptor = target: T2, rat ETB receptor (Rattus norvegicus, UniProt P21451); assay: Determination of EC50s of polypeptides against rat ETB receptor; format: cell-based; conditions: Table 8, rat ETB receptor; for pEC50: read-out: DETAR Agonist Activity EC50
T2 construct: expressed in transfected cells
T2 sequence (P21451 27-442): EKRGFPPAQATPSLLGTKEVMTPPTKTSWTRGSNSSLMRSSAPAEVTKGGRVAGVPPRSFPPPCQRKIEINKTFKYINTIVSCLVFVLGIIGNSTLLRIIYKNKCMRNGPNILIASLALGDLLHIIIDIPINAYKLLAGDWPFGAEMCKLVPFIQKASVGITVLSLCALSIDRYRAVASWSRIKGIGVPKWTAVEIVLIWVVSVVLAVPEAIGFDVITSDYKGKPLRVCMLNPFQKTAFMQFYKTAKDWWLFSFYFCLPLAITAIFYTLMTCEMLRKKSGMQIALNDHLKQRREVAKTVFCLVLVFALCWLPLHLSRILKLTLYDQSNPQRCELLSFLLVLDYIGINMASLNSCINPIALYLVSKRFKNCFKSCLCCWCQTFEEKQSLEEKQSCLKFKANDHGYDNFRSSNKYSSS
Procedure: as §1
The process is the same as that in Example 3, except that the transfected plasmid was expression vector PCDNA3.1-RETB which contained a rat ETB receptor gene. EC50 values of the polypeptides against the rat ETB receptor were calculated (see Figures 11-13). The sequence of the rat ETB receptor (NCBI accession number: X57764.1).

human ETB receptor = target: T3, human ETB receptor (Homo sapiens, UniProt P24530); assay: Determination of EC50 of polypeptides against human ETB receptor (IP-One Gq kit); format: cell-based; conditions: for EC50: 293T-17 cells transfected with PCDNA3.1-hETB, read-out: hETBR agonist activity EC50/nM
T3 construct: expressed in transfected cells; host or cells: 293T-17 cells, transient transfection
T3 sequence (P24530 27-442): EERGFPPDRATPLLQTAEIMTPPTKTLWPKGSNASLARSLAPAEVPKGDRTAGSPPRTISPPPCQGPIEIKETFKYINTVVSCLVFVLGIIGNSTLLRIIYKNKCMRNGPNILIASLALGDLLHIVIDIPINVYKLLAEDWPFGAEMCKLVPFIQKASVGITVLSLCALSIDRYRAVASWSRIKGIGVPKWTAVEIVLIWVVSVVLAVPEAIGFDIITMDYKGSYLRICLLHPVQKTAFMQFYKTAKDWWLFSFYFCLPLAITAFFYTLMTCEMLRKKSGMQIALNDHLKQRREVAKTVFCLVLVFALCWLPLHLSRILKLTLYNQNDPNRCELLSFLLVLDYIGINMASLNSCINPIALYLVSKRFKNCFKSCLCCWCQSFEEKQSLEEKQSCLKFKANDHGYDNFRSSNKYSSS
Procedure: as §1

[1] = Determination of half-lives of polypeptides (plasma, LC-MS); conditions: for half-life: C57 BL/6, mouse, plasma, iv; for AUClast 0-30 min: C57 BL/6 mice, i.v., dosage per compound 0.48, 0.96 or 1 mpk

Compound	half-life [1] [min]	AUClast 0-30 min [1] [ng·h/mL]	DETAR Agonist Activity, % (dog ETB receptor; @100nM)	DETAR Agonist Activity, % (rat ETB receptor; @10nM)	DETAR Agonist Activity, % (rat ETB receptor; @100nM)	also measured
CCCCCCCCCCCC(=O)N[C@@H](CCC(=O)NCCOCCOCC(=O)NCCCC[C@H](NC(=O)[C@H](Cc1c[nH]cn1)NC(=O)[C@H](C)NC(=O)[C@H](Cc1ccccc1)NC(=O)[C@H](Cc1ccc(O)cc1)NC(=O)[C@@H](NC(=O)[C@H](C)NC(=O)[C@H](CCC(=O)O)NC(=O)[C@H](CCC(=O)O)NC(=O)[C@H](CC(=O)O)NC(=O)/C=C/C(=O)O)C(C)C)C(=O)N[C@@H](CC(=O)O)C(=O)N[C@H](C(=O)N[C@H](C(=O)N[C@@H](Cc1c[nH]c2ccccc12)C(=O)O)[C@@H](C)CC)C(C)C)C(=O)O [BX229-Na] (Fumaroyl-DEEAVYFAHK([AEEA-γGlu-Lauroyl])DVIW-OH)						pEC50 (dog ETB receptor): 7.75; pEC50 (rat ETB receptor): 8.14; EC50 (human ETB receptor): 16.7 nM
CC[C@H](C)[C@H](NC(=O)[C@H](CC(=O)O)NC(=O)[C@H](CCCCNC(=O)COCCOCCNC(=O)COCCOCCNC(=O)CC[C@H](NC(=O)CCCCCCCCCCCCCCCCC(=O)O)C(=O)O)NC(=O)[C@H](Cc1c[nH]cn1)NC(=O)[C@H](C)NC(=O)[C@H](Cc1ccccc1)NC(=O)[C@H](Cc1ccc(O)cc1)NC(=O)[C@@H](NC(=O)[C@H](C)NC(=O)[C@H](CCC(=O)O)NC(=O)[C@H](CCC(=O)O)NC(=O)[C@H](CC(=O)O)NC(=O)/C=C/C(=O)O)C(C)C)C(=O)N[C@H](C(=O)N[C@@H](Cc1c[nH]c2ccccc12)C(=O)O)[C@@H](C)CC [BX-34] (Fumaroyl-DEEAVYFAHK([AEEA-AEEA-γGlu-C18 diacid])DIIW-OH)	63	7736				
CC[C@H](C)[C@H](NC(=O)[C@H](CC(=O)O)NC(=O)[C@H](CCCCNC(=O)COCCOCCNC(=O)CCN1C(=O)CC(SC[C@H](N)C(=O)N2CCC[C@H]2C(=O)N[C@@H](C)C(=O)N[C@@H](CCCCN)C(=O)O)C1=O)NC(=O)[C@H](Cc1c[nH]cn1)NC(=O)[C@H](C)NC(=O)[C@H](Cc1ccccc1)NC(=O)[C@H](Cc1ccc(O)cc1)NC(=O)[C@@H](NC(=O)[C@H](C)NC(=O)[C@H](CCC(=O)O)NC(=O)[C@H](CCC(=O)O)NC(=O)[C@H](CC(=O)O)NC(=O)/C=C/C(=O)O)C(C)C)C(=O)N[C@H](C(=O)N[C@@H](Cc1c[nH]c2ccccc12)C(=O)O)[C@@H](C)CC (stereo partly drawn) [BX-95] (Fumaroyl-DEEAVYFAHK([AEEA-X1])DIIW-OH)						pEC50 (dog ETB receptor): 7.16; pEC50 (rat ETB receptor): 7.62; EC50 (human ETB receptor): 45.6 nM
CCCCCCCCCCCC(=O)N[C@@H](CCC(=O)NCCOCCOCC(=O)NCCCC[C@H](NC(=O)[C@H](Cc1c[nH]cn1)NC(=O)[C@H](C)NC(=O)[C@H](Cc1ccccc1)NC(=O)[C@H](Cc1ccc(O)cc1)NC(=O)[C@@H](NC(=O)[C@H](C)NC(=O)[C@H](CCC(=O)O)NC(=O)[C@H](CCC(=O)O)NC(=O)[C@H](CC(=O)O)NC(=O)/C=C/C(=O)O)C(C)C)C(=O)N[C@@H](CC(=O)O)C(=O)N[C@H](C(=O)N[C@H](C(=O)N[C@@H](Cc1c[nH]c2ccccc12)C(=O)O)[C@@H](C)CC)[C@@H](C)CC)C(=O)O [BX-225] (Fumaroyl-DEEAVYFAHK([AEEA-γGlu-Lauroyl])DIIW-OH)	37	4981				
CC[C@H](C)[C@H](NC(=O)[C@H](CC(=O)O)NC(=O)[C@H](CC(C)C)NC(=O)[C@H](Cc1c[nH]cn1)NC(=O)[C@H](C)NC(=O)[C@H](Cc1ccccc1)NC(=O)[C@H](Cc1ccc(O)cc1)NC(=O)[C@@H](NC(=O)[C@H](C)NC(=O)[C@H](CCC(=O)O)NC(=O)[C@H](CCC(=O)O)NC(=O)[C@H](CC(=O)O)NC(=O)CCC(=O)O)C(C)C)C(=O)N[C@H](C(=O)N[C@@H](Cc1c[nH]c2ccccc12)C(=O)O)[C@@H](C)CC [IRL1620, reference compound] (Suc-DEEAVYFAHLDIIW-OH)	< 2.6	130				pEC50 (human ETB receptor): 8.88
Fum-DEEEVYFAHKDIIW (Fumaroyl-DEEEVYFAHKDIIW) [BX-52]			104.49%@1 00nM	22.36%@10n M	389.09%@100 nM	DETAR Agonist Activity, % (dog ETB receptor; @10nM): 76.82%@10 nM
Fum-DEEEVYFAHOrnDIIW [BX-59]			117.46%@1 00nM	314.15%@10n M	46.94%@100n M	DETAR Agonist Activity, % (dog ETB receptor; @10nM): 14.7%@10n M
Suc-DE cyclo(CEEC)YFAHKDIIW (Suc-DECEECYFAHKDIIW; not fully specified (bridges); printed as Suc-DE cyclo(CEEC)YFAHKDIIW; also: cyclo(CEEC) in N-terminal extension, bond type not given here) [BX-57]			49.81%	67.42%	218.34%	
